Test results reported in PubChem BioAssay AID1918955 (Molecular Pharmacology Branch, DTP, NCI, 2023).
Values joined by “and” are separate entries in the source; they are usually repeats but may differ in a detail not shown here. Identical values can stand only once.

Tested on: NCI/ADR-RES complex spheroid viability
Assay: Anticancer human tumor NCI/ADR-RES cell line growth inhibition;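 further: spheroids exposed to compounds for 7 days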;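 on viability, T/C: 100% = DMSO vehicle treated spheroids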
Details: for viability, T/C: stronger effect = lower value; active means viability on the fitted dose curve at most 10% of control; inactive means the rest
Method in brief: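 Complex spheroids of tumor cells with HUVEC and human MSCs, exposed to iadademstat combined with other agents. Each agent tested in half-log steps from near clinical Cmax (else 10 microM top), DMSO ≤0.25%.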

[1] = curve of first compound, second compound 0.1 µM
[2] = curve of first compound, second compound 0.316 µM
[3] = curve of first compound, second compound 1 µM
[4] = curve of first compound, second compound 3.16 µM
[5] = curve of first compound, second compound 10 µM

NC1CC1c1ccc(-c2cccc(O)c2)cc1 (stereo not drawn)
inactive: viability, T/C (compound 0.1 µM) 99.3% and 104% | viability, T/C (compound 0.316 µM) 105% [middle of 24 runs] | viability, T/C (compound 1 µM) 99.4% [middle of 24 runs] | viability, T/C (compound 3.16 µM) 97.5% [middle of 25 runs] | viability, T/C (compound 10 µM) 86.9% [middle of 25 runs]
> 10 µM: IC50 (compound alone, run of 12/07/2021)

CCN(c1cc(-c2ccc(CN3CCOCC3)cc2)cc(C(=O)NCc2c(C)cc(C)[nH]c2=O)c1C)C1CCOCC1 + NC1CCC(NC2CC2c2ccccc2)CC1
> 3 µM: IC50 [1] | IC50 [2] | IC50 [3] | IC50 [4] | IC50 [5]
inactive: viability, T/C (second compound 0.1 µM, first compound 0.00949 µM) 92.4% | viability, T/C (second compound 0.1 µM, first compound 0.03 µM) 92.5% | viability, T/C (second compound 0.1 µM, first compound 0.0949 µM) 98.1% | viability, T/C (second compound 0.1 µM, first compound 0.3 µM) 98.1% | viability, T/C (second compound 0.1 µM, first compound 0.949 µM) 92.8% | viability, T/C (second compound 0.1 µM, first compound 3 µM) 89.3% | viability, T/C (second compound 0.316 µM, first compound 0.00949 µM) 94.6% | viability, T/C (second compound 0.316 µM, first compound 0.03 µM) 97.9% | viability, T/C (second compound 0.316 µM, first compound 0.0949 µM) 96.9% | viability, T/C (second compound 0.316 µM, first compound 0.3 µM) 95% | viability, T/C (second compound 0.316 µM, first compound 0.949 µM) 91.4% | viability, T/C (second compound 0.316 µM, first compound 3 µM) 81.5% | viability, T/C (second compound 1 µM, first compound 0.00949 µM) 104% | viability, T/C (second compound 1 µM, first compound 0.03 µM) 99.5% | viability, T/C (second compound 1 µM, first compound 0.0949 µM) 93.8% | viability, T/C (second compound 1 µM, first compound 0.3 µM) 99% | viability, T/C (second compound 1 µM, first compound 0.949 µM) 95.7% | viability, T/C (second compound 1 µM, first compound 3 µM) 89.2% | viability, T/C (second compound 3.16 µM, first compound 0.00949 µM) 89.4% | viability, T/C (second compound 3.16 µM, first compound 0.03 µM) 98% | viability, T/C (second compound 3.16 µM, first compound 0.0949 µM) 94% | viability, T/C (second compound 3.16 µM, first compound 0.3 µM) 96% | viability, T/C (second compound 3.16 µM, first compound 0.949 µM) 87.6% | viability, T/C (second compound 3.16 µM, first compound 3 µM) 89% | viability, T/C (second compound 10 µM, first compound 0.00949 µM) 91.9% | viability, T/C (second compound 10 µM, first compound 0.03 µM) 89.8% | viability, T/C (second compound 10 µM, first compound 0.0949 µM) 88.2% | viability, T/C (second compound 10 µM, first compound 0.3 µM) 86.1% | viability, T/C (second compound 10 µM, first compound 0.949 µM) 90.1% | viability, T/C (second compound 10 µM, first compound 3 µM) 80.9%

COc1ccc([C@@H](O)c2cc(-c3ncnc4cc(N5CCOCC5)ccc34)c(F)cc2Cl)nn1 + NC1CC1c1ccc(-c2cccc(O)c2)cc1
3.23 µM: IC50 [3]
1.94 µM: IC50 [5]
3.25 µM: IC50 [4]
3.24 µM: IC50 [2]
3.05 µM: IC50 [1]
inactive: viability, T/C (second compound 0.1 µM, first compound 0.0316 µM) 106% | viability, T/C (second compound 0.1 µM, first compound 0.1 µM) 99.8% | viability, T/C (second compound 0.1 µM, first compound 0.316 µM) 84.8% | viability, T/C (second compound 0.1 µM, first compound 1 µM) 68.4% | viability, T/C (second compound 0.1 µM, first compound 3.16 µM) 50.7% | viability, T/C (second compound 0.1 µM, first compound 10 µM) 25.9% | viability, T/C (second compound 0.316 µM, first compound 0.0316 µM) 106% | viability, T/C (second compound 0.316 µM, first compound 0.1 µM) 105% | viability, T/C (second compound 0.316 µM, first compound 0.316 µM) 92.7% | viability, T/C (second compound 0.316 µM, first compound 1 µM) 74% | viability, T/C (second compound 0.316 µM, first compound 3.16 µM) 51.4% | viability, T/C (second compound 0.316 µM, first compound 10 µM) 27.7% | viability, T/C (second compound 1 µM, first compound 0.0316 µM) 105% | viability, T/C (second compound 1 µM, first compound 0.1 µM) 99.1% | viability, T/C (second compound 1 µM, first compound 0.316 µM) 90.6% | viability, T/C (second compound 1 µM, first compound 1 µM) 73.1% | viability, T/C (second compound 1 µM, first compound 3.16 µM) 50.5% | viability, T/C (second compound 1 µM, first compound 10 µM) 25.7% | viability, T/C (second compound 3.16 µM, first compound 0.0316 µM) 101% | viability, T/C (second compound 3.16 µM, first compound 0.1 µM) 96% | viability, T/C (second compound 3.16 µM, first compound 0.316 µM) 83.4% | viability, T/C (second compound 3.16 µM, first compound 1 µM) 72.4% | viability, T/C (second compound 3.16 µM, first compound 3.16 µM) 50.5% | viability, T/C (second compound 3.16 µM, first compound 10 µM) 22.6% | viability, T/C (second compound 10 µM, first compound 0.0316 µM) 84.6% | viability, T/C (second compound 10 µM, first compound 0.1 µM) 87.3% | viability, T/C (second compound 10 µM, first compound 0.316 µM) 77% | viability, T/C (second compound 10 µM, first compound 1 µM) 61.8% | viability, T/C (second compound 10 µM, first compound 3.16 µM) 41.4% | viability, T/C (second compound 10 µM, first compound 10 µM) 23.2%

CC(C)CC(NC(=O)CNC(=O)c1cc(Cl)ccc1Cl)B1OC(=O)CC(CC(=O)O)(C(=O)O)O1 (stereo not drawn)
inactive: viability, T/C (compound 0.000316 µM) 98% and 97.7% | viability, T/C (compound 0.001 µM) 105% and 96.7% | viability, T/C (compound 0.00316 µM) 103% and 105% | viability, T/C (compound 0.01 µM) 71.3% and 79.3% | viability, T/C (compound 0.0316 µM) 45.7% and 33.5%
active: viability, T/C (compound 0.1 µM) 4.13% and 1.05%
0.025 µM and 0.021 µM: IC50 (curve of compound)
